This passage reports IC50 results from patent US12168653B2, “Sulfonamide derivates as NLRP3 inhibitors” (Inflazome Limited, priority 2018, dated 2024).

Counter-ions that a name gives are not always drawn. Like-named read-outs stand apart in the source and are kept apart here.

The subject of this experiment is NLRP3. Briefly: THP-1 cells pyroptosis assay (LPS/nigericin, resazurin read-out). Particulars: Homo sapiens. In kind it is cell-based. Here is the method: THP-1 cells (ATCC #TIB-202) were grown in RPMI containing L-glutamine (Gibco #11835) supplemented with 1 mM sodium pyruvate (Sigma #S8636) and penicillin (100 units/ml)/streptomycin (0.1 mg/ml) (Sigma #P4333) in 10% Fetal Bovine Serum (FBS) (Sigma #F0804). The cells were routinely passaged and grown to confluency (˜10^6 cells/ml). On the day of the experiment, THP-1 cells were harvested and resuspended into RPMI medium (without FBS). The cells were then counted and viability (>90%) checked by Trypan blue (Sigma #T8154). Appropriate dilutions were made to give a concentration of 625,000 cells/ml. To this diluted cell solution was added LPS (Sigma #L4524) to give a 1 μg/ml Final Assay Concentration (FAC). 40 μl of the final preparation was aliquoted into each well of a 96-well plate. The plate thus prepared was used for compound screening.
The following method step-by-step assay was followed for compound screening. • 1. Seed THP-1 cells (25,000 cells/well) containing 1.0 μg/ml LPS in 40 μl of RPMI medium (without FBS) in 96-well, black walled, clear bottom cell culture plates coated with poly-D-lysine (VWR #734-0317) • 2. Add 5 μl compound (8 points half-log dilution, with 10 μM top dose) or vehicle (DMSO 0.1% FAC) to the appropriate wells • 3. Incubate for 3 hrs at 37° C., 5% CO2 • 4. Add 5 μl nigericin (Sigma #N7143) (FAC 5 μM) to all wells • 5. Incubate for 1 hr at 37° C., 5% CO2 • 6. At the end of the incubation period, spin plates at 300×g for 3 mins and remove supernatant • 7. Then add 50 μl of resazurin (Sigma #R7017) (FAC 100 μM resazurin in RPMI medium without FBS) and incubate plates for a further 1-2 hrs at 37° C. and 5% CO2 • 8. Plates were read in an Envision reader at Ex 560 nm and Em 590 nm • 9. IC50 data is fitted to a non-linear regression equation (log inhibitor vs response-variable slope 4-parameters) 96-Well Plate Map
A general note: The colour change of resazurin is a common sign of viable cells or microbes.

[1] abbreviates: THP-1 cells, 1 μg/ml LPS, 3 hrs compound, 5 μM nigericin 1 hr, NLRP3 inhibitory activity, read-out: THP IC50.

For the compound `COc1cc(-c2ccc3c(c2CC(=O)NS(=O)(=O)N(C)C2CCN(C)C2)CCC3)ccn1` (centres unmarked) [Example 1, 2-(5-(2-Methoxypyridin-4-yl)-2,3-dihydro-1H-inden-4-yl)-N—(N-methyl-N-(1-methylpyrrolidin-3-yl)sulfamoyl)acetamide, Potassium Salt], for the setting “THP-1, read-out: THP IC50”, the IC50 was under 5 µM.
`CCN(CC)CCCS(=O)(=O)NC(=O)Cc1c(-c2ccnc(OC)c2)ccc2c1CCC2` [Example 2, N-((3-(Diethylamino)propyl)sulfonyl)-2-(5-(2-methoxypyridin-4-yl)-2,3-dihydro-1H-inden-4-yl)acetamide]: under setting [1], the IC50 is under 10 µM.
`CCN(CC)CCCS(=O)(=O)NC(=O)Cc1c(-c2ccnc(OC)c2)cc(F)cc1C(C)C` [Example 3, N-((3-(Diethylamino)propyl)sulfonyl)-2-(4-fluoro-2-isopropyl-6-(2-methoxypyridin-4-yl)phenyl)acetamide, Potassium Salt]: under “THP-1, read-out: THP IC50”, the half-maximal inhibitory concentration (IC50) is under 5 µM.
As for `CCN(CC)CCCS(=O)(=O)NC(=O)Cc1c2c(cc3c1CCC3)CCC2` [Example 4, N-((3-(Diethylamino)propyl)sulfonyl)-2-(1,2,3,5,6,7-hexahydro-s-indacen-4-yl)acetamide], the IC50 under setting [1] is under 10 µM.
On the same count and under the same terms, then `CC(C)c1cc(F)cc(C(C)C)c1CC(=O)NS(=O)(=O)N(C)C1CCN(C)C1` (centres unmarked) [Example 5, 2-(4-Fluoro-2,6-diisopropylphenyl)-N—(N-methyl-N-(1-methylpyrrolidin-3-yl)sulfamoyl)acetamide], with under 5 µM; and `CCN(CC)CCCS(=O)(=O)NC(=O)Cc1c(C(C)C)cc(F)cc1C(C)C` [Example 6, N-((3-(Diethylamino)propyl)sulfonyl)-2-(4-fluoro-2,6-diisopropylphenyl)acetamide], with under 10 µM.
With `COc1cc(-c2cc(F)cc(C(C)C)c2CC(=O)NS(=O)(=O)C[C@]23CCC(CC2=O)C3(C)C)ccn1` [Example 7, N-((((1S)-7,7-Dimethyl-2-oxobicyclo[2.2.1]heptan-1-yl)methyl)sulfonyl)-2-(4-fluoro-2-isopropyl-6-(2-methoxypyridin-4-yl)phenyl)acetamide, Potassium Salt], the 50% inhibitory concentration (IC50) (THP-1, read-out: THP IC50) was under 10 µM.
As for `COc1cc(-c2cc(F)cc(C(C)C)c2CC(=O)NS(=O)(=O)N(C)C2CCN(C)C2)ccn1` (centres unmarked) [Example 8, 2-(4-Fluoro-2-isopropyl-6-(2-methoxypyridin-4-yl)phenyl)-N—(N-methyl-N-(1-methylpyrrolidin-3-yl)sulfamoyl)acetamide, Potassium Salt], for the setting “THP-1, read-out: THP IC50”, the IC50 is under 5 µM.
The same measure, in the same setting: then `COc1cc(-c2cc(F)cc(C(C)C)c2CC(=O)NS(=O)(=O)C[C@@]23CC[C@@H](C[C@H]2O)C3(C)C)ccn1` [Example 9, 2-(4-Fluoro-2-isopropyl-6-(2-methoxypyridin-4-yl)phenyl)-N-((((1R,2R,4S)-2-hydroxy-7,7-dimethylbicyclo[2.2.1]heptan-1-yl)methyl)sulfonyl)acetamide, Potassium Salt], with under 5 µM; and `COc1cc(-c2cc(F)cc(C(C)C)c2CC(=O)NS(=O)(=O)CCCC(C)(C)O)ccn1` [Example 10, 2-(4-Fluoro-2-isopropyl-6-(2-methoxypyridin-4-yl)phenyl)-N-((4-hydroxy-4-methylpentyl)sulfonyl)acetamide, Potassium Salt], with under 10 µM.
Consider `COc1cc(-c2cc(F)cc(C(C)C)c2CC(=O)NS(=O)(=O)CC2(C#N)CCCCC2)ccn1` [Example 11], for which the concentration for half-maximal inhibition (IC50) under setting [1] is under 1 µM.

The IC50 is the midpoint of a concentration-inhibition curve.
